Test results from patent publication US11827917B1, “Methods for the conversion of fermentable sugars to ethanol” (Colorado State University Research Foundation, priority 2020, dated 2023).
Values joined by “and” are separate entries in the source; they are usually repeats but may differ in a detail not shown here. Equal values may be shown once.

Key:
[1] = test system: S. cerevisiae JAY 270; assay: Continuous two-column immobilized cell bioreactor in YPD medium; format: cell-based, Saccharomyces cerevisiae; settings: Phase 2, 0.2% PheOH in feed
Excerpt: The immobilized cell reactor system consisted of two glass cylindrical columns, a vessel with agitation containing fermentation medium (controlled temperature, pH, and dissolved oxygen), and a pump for delivery of the feed to the column. The glass column had dimensions of OD=32, ID=29, and L=160 mm; screens were placed above and below the alginate bead layer to retain the cells in the column. YPD medium with 0.6 g/L CaCl2·2H2O was used in the continuous fermentation. Two columns (a well-mixed reactor column and a packed-bed column) were used in this test (FIG. 5). The total volume of immobilized cells used to fill the column was […] and the medium volume was 20 mL in each column. The total medium volume in the system was 60 mL, including the medium in both columns and in the vessel. The flow rate of fresh medium was 2.3 mL/min.
The system was first fed with YPD medium for 20 hours to activate the immobilized cells. After 20 hours, samples were collected at different times points over 24 hours from both Column 1 (well-mixed reactor) and the entire system. Then YPD medium containing 0.2% PheOH was used to replace the YPD medium for another 26 hours. After that, the medium was changed back to YPD medium for 6 hours. The content of glucose and ethanol in samples was analyzed using HPLC.
Owing to the limited supply of algal hydrolysate, the test was conducted using YPD medium. The test was conducted with 0.2% PheOH as the growth inhibitor. For 20 hours prior to the start of the experiment, the system was fed YPD medium without PheOH to ensure that the cells were fully active following their immobilization. The experiment was then conducted with three phases: • (1) 24 hours, during which the feed was YPD medium without PheOH. The start of this phase represented time zero of the experiment. • (2) 26 hours, during which the feed was YPD medium with 0.2% PheOH. • (3) 6 hours, during which the feed was YPD medium without PheOH.

[2] = test system: S. cerevisiae JAY270; assay: Immobilized yeast cells, batch cultivation on D. armatus hydrolysate; format: cell-based, Saccharomyces cerevisiae; settings: 0.2%; for EtOH yield / EtOH yield % Δ from control: 24 hours
Description: S. cerevisae JAY270 cells were precultured in 600 mL YPD medium at 30° C. overnight and collected by centrifuging at 3000×g for 10 min at 4° C. The cell pellets were washed twice by resuspending in 0.8% NaCl and centrifuged to remove any medium residue. Then, the cells were resuspended in 50 mL 0.8% NaCl and mixed with the 4% sodium alginate solution to obtain the final sodium alginate concentration of 3%. The mixture was dropped with a syringe aseptically into sterilized 2% CaCl2·2H2O on ice to form spheres (“beads”). The cell-immobilized beads were kept in the CaCl2) solution at 4° C. until use.
The immobilized cells were incubated in YPD medium with 20 g/L glucose overnight at 30° C. to activate the immobilized cells. For each replicate test, 25 mL of D. armatus hydrolysate obtained from NREL was mixed with 15 mL beads and transferred into a 50 mL serum bottle. All serum bottles were incubated in a shaker at 150 rpm and 30° C. Samples were collected at 0, 12, and 24 h. The concentrations of sugars and ethanol in the samples were analyzed by HPLC.
To test the effects of yield-increasing chemicals on the immobilized cells fermentation, 0.2% PheOH or TrpOH was added in the D. armatus hydrolysate obtained from NREL in serum bottles respectively (batch growth). PheOH was directly added into the hydrolysate medium. TrpOH was dissolved in DMSO at 20%, then added into the hydrolysate to achieve the desired final concentration. The same amount of DMSO was added into the control cultivations. S. cerevisae JAY270 cells were immobilized in calcium alginate. The immobilized cell beads were incubated in YPD medium overnight at 30° C. to activate the immobilized cells. Twenty-five mL of D. armatus hydrolysate was mixed with 15 mL immobilized cell beads (three biological replicates in each treatment) and incubated at 30° C. The ethanol yield was calculated at 24 hours. The content of glucose and ethanol in samples was analyzed using HPLC.

[3] = test system: yeast cell growth; assay: Serum-bottle study of the TrpOH concentration with similar growth inhibition as PheOH; format: cell-based; settings: serum bottles, data not shown
Description: For experiments with added PheOH, 2.0 mL of PheOH stock solution was added to one of the two vessels when the OD600 reached 1.0 to achieve a final concentration of 0.2% (w/v). In the serum bottle tests, TrpOH had stronger effects on yeast cell growth than PheOH at the same tested concentration. A study in serum bottles was then conducted to determine the TrpOH concentration that would have a similar growth inhibitory effect. […] Thus, for bioreactor experiments on the effects of TrpOH, the TrpOH was added at 0.12%. Since TrpOH was dissolved in DMSO, the same concentration of DMSO was added in the control bioreactor at the same time. All other bioreactor conditions were the same as in the PheOH test.

| SMILES | Ethanol productivity ([1]; C1) [g/L·h] | Ethanol yield ([1]; C1) | Ethanol yield ([1]; C1+C2) | Glucose conversion ([1]; C1+C2) [%] | Glucose conversion ([1]; after C1) [%] | Ethanol productivity ([1]; whole system) [g/L·h] | EtOH yield ([2]; D. armatus hydrolysate, batch) [g/g] | EtOH yield % Δ from control ([2]; D. armatus hydrolysate, batch) | Concentration with similar growth inhibition as PheOH at 16.4 mM [3] [mM] | Concentration with similar growth inhibition as PheOH at 0.2% (w/v) [3] | Ethanol yield higher than the value for free cell fermentation of D. armatus hydrolysate [2] | Ethanol yield ([2]; D. armatus hydrolysate, batch) [g ethanol/g sugar] |
| --- | --- | --- | --- | --- | --- | --- | --- | --- | --- | --- | --- | --- |
| OCCc1ccccc1 [PheOH, 2-phenylethanol] | 21 | about 0.45 | ~0.43 | 91 | 60 | 21 | 0.46 | 1.54% | – | – | – | – |
| OCCc1c[nH]c2ccccc12 [TrpOH, tryptophol] | – | – | – | – | – | – | 0.49 | 11.4% and 11.42% | 7.5 | 0.12 % (w/v) | about 20% | 0.49 |
